From article PMC3345832, “EROD and MROD as Markers of Cytochrome P450 1A Activities in Hepatic Microsomes from Entire and Castrated Male Pigs” (Sensors (Basel, Switzerland), 2009)
Where two headings read alike, the source gives them in different places.

Experiments:
[1] = system: porcine liver microsomes (EROD); design: method as in Messina et al. [6]; conditions: ref Messina et al. [6]; cited from earlier work
[2] = system: porcine liver microsomes (EROD); experiment: Enzyme kinetics of resorufin formation from 7-ethoxyresorufin (EROD) in hepatic microsomes; assay type: in vitro ADME, pig; conditions: 95% confidence interval
Procedure: (§1) Incubation mixtures contained microsomal protein (0.2 mg), phosphate buffer (pH 7.4, 50 mM) and substrate (2 μM; 7-ethoxyresofurin for EROD activity or 7-methoxyresofurin for MROD activity). Reactions were started by the addition of 1 mM NADPH. The reaction mixture, in a final volume of 500 μL, was incubated in a water bath at 37 °C for 5 min. Reactions were terminated with ice-cold 100% methanol (500 μL), followed by centrifugation at 7,500 × g for 5 min. Resorufin concentrations in the supernatants were measured with HPLC the same day as described above. EROD and MROD activities were expressed as pmol of resorufin per milligram protein and minute.
(§2) The studies were performed by using two pools of microsomes from six entire (pool 1) and six castrated male pigs (pool 2). For the kinetic studies, EROD and MROD activities were determined over the substrate concentration range from 0.0156 to 3.0 μM. […] The final concentration of DMSO in the incubations was below 0.5%.
(§3) Michaelis-Menten parameters (Km and Vmax values) and inhibition constants (Ki) were determined by a GraphPad Prism version 4.0 for Windows, GraphPad Software (San Diego California, USA). Data were additionally assayed by a SigmaPlot Enzyme Kinetics 1.3 software. Visual analysis of Eadie-Hofstee plots was used to categorise enzyme kinetics as mono- or biphasic, i.e. whether one or more enzymes participate in the reaction. When Eadie-Hofstee plots indicated monophasic kinetics, the following equation was applied to estimate kinetic parameters: V=(Vmax*S)/(Km+S); when Eadie-Hofstee plots indicated biphasic kinetics, the following equation was applied: V=(Vmax1*S)/(Km1+S)+ (V max2*S)/(Km2+S).

[3] = system: EROD activity (7-ethoxyresorufin O-deethylation); experiment: as above; assay type: in vitro ADME, pig; conditions: male, pig, 95% confidence interval
Procedure: as §1, §2, §3

[4] = system: porcine liver microsomes (MROD); conditions: cited from earlier work
[5] = system: porcine liver microsomes (MROD); conditions: 95% confidence interval
[6] = system: CYP1A (MROD activity); experiment: in vitro; conditions: male, pig, pH 7.4, Ki
Procedure: as §1
(§4) The studies were performed by using two pools of microsomes from six entire (pool 1) and six castrated male pigs (pool 2). […] For the inhibition study, the substrate range was from 0.25 to 2 µM. […] The inhibitors were dissolved in DMSO, and the same volume of DMSO was added to the control incubations. The final concentration of DMSO in the incubations was below 0.5%. All inhibitors were added before the addition of the substrate. […] Inhibition is expressed as the percent of the corresponding incubation control.
(§5) Michaelis-Menten parameters (Km and Vmax values) and inhibition constants (Ki) were determined by a GraphPad Prism version 4.0 for Windows, GraphPad Software (San Diego California, USA). Data were additionally assayed by a SigmaPlot Enzyme Kinetics 1.3 software. […] When Eadie-Hofstee plots indicated monophasic kinetics, the following equation was applied to estimate kinetic parameters: V=(Vmax*S)/(Km+S); when Eadie-Hofstee plots indicated biphasic kinetics, the following equation was applied: V=(Vmax1*S)/(Km1+S)+ (V max2*S)/(Km2+S).

[7] = system: EROD activities in porcine liver microsomes (CYP1A); conditions: for EROD activity, % of the control values: 20 μM inhibitor, microsomes from entire and castrated male pigs; for Ki, EROD: substrate 0.25 to 2 µM
Procedure: as §1, §4, §5

[8] = system: MROD activities in porcine liver microsomes (CYP1A)
Procedure: as §1, §4, §5

[9] = system: CYP1A (EROD activity); experiment: in vitro; conditions: male, pig, substrate 0.25 to 2 µM
Procedure: as §1, §4, §5

[10] = Stability of resorufin in incubation supernatants; assay type: physicochemical
Procedure: The stability was assessed by measuring resorufin in the supernatant (n=8) stored in +4 °C and protected from light for several days and measured at days 0, 1, 2, 3, 5 and 8. A pool of microsomes used for the stability study was previously used for study on linearity with microsomal protein. Resorufin concentrations in those samples varied from 0.9 to 8.1 pmol/mL. Stability of resorufin stored in room temperature was assessed using four samples with resorufin concentrations from 1.5 to 2.6 pmol/mL.

[11] = 20 μM inhibitor, microsomes from entire and castrated male pigs
[12] = microsomes from castrated pigs, substrate 0.25 to 2 µM
[13] = microsomes from entire male pigs, substrate 0.25 to 2 µM

CCOc1ccc2nc3ccc(=O)cc-3oc2c1 [7-ethoxyresorufin]
Km [1]: 0.64 µM
Vmax (CI), EROD high-affinity component ([2]; castrated male pigs): 7.3 (5.5 – 9.0) pmol/min/mg
Vmax (CI), EROD low-affinity component ([2]; castrated male pigs): 15.2 (12.9 – 17.6) pmol/min/mg
Vmax (CI), EROD high-affinity component ([2]; entire male pigs): 5.9 (3.1 – 8.6) pmol/min/mg
Vmax (CI), EROD low-affinity component ([2]; entire male pigs): 11.7 (9.6 – 13.8) pmol/min/mg
Km at 5 min ([3]; liver microsomes (pool 1, six entire male pigs), pH 7.4, entire male pigs, read-out: Km (CI), EROD high-affinity component): 0.01 µM
Km at 5 min ([3]; liver microsomes (pool 1, six entire male pigs), pH 7.4, entire male pigs, read-out: Km (CI), EROD low-affinity component): 0.54 µM
Km at 5 min ([3]; liver microsomes (pool 2, six castrated male pigs), pH 7.4, castrated male pigs, read-out: Km (CI), EROD high-affinity component): 0.01 µM
Km at 5 min ([3]; liver microsomes (pool 2, six castrated male pigs), pH 7.4, castrated male pigs, read-out: Km (CI), EROD low-affinity component): 1.25 µM

COc1ccc2nc3ccc(=O)cc-3oc2c1 [7-methoxyresorufin]
Km [4]: 2.2 µM
Vmax (CI), MROD ([5]; castrated male pigs): 2.6 (2.5 – 2.8) pmol/min/mg
Vmax (CI), MROD ([5]; entire male pigs): 0.8 (0.7 – 0.9) pmol/min/mg

O=c1cc(-c2ccccc2)oc2c1ccc1ccccc12 [ANF, α-naphthoflavone]
Ki at 5 min [6]: 0.014 µM
EROD activity, % of the control values [7]: 19–23%
MROD activity, % of the control values [8, 11]: 30%
Ki ([8]; male, pig, 5 min, pH 7.4): 0.018 µM
Ki at 5 min ([9]; liver microsomes (pool 1, six entire male pigs), pH 7.4, probe 7-ethoxyresorufin, 0.25 to 2 µM, Ki, microsomes from entire male pigs): 0.031 µM
Ki at 5 min ([9]; liver microsomes (pool 2, six castrated male pigs), pH 7.4, probe 7-ethoxyresorufin, 0.25 to 2 µM, Ki, microsomes from castrated pigs): 0.096 µM

Cc1c2ccncc2c(C)c2c1[nH]c1ccccc12 [Ellipticine, ellipticine]
Ki at 5 min [6, 12]: 0.019 µM
Ki at 5 min [6, 13]: 0.024 µM
EROD activity, % of the control values [7]: 8–10%
MROD activity, % of the control values [8, 11]: 14–16%
Ki at 5 min ([9]; pH 7.4, Ki, microsomes from castrated pigs): 0.021 µM
Ki at 5 min ([9]; pH 7.4, Ki, microsomes from entire male pigs): 0.017 µM

Cc1nc2c([nH]1)c(=O)n(C)c(=O)n2Cc1ccco1 [Furafylline, furafylline]
Effect on EROD activities ([7]; 10-100 μM, pre-incubated with microsomes and NADPH): did not affect EROD activities
Ki, EROD ([7]; microsomes from castrated pigs): no ^*
Ki, EROD ([7]; microsomes from entire male pigs): no ^*
MROD activity, % of the control values ([8]; 100 μM inhibitor, pre-incubated 10 min with NADPH, entire and castrated male pigs): 55–61%
Inhibition of MROD activity without pre-incubation ([8]; no pre-incubation of microsomes and inhibitor with NADPH (data not shown)): No inhibition

O=c1ccc2nc3ccc(O)cc3oc-2c1 [Resorufin]
Time stable in supernatants ([10]; stored at 4 °C under dark conditions): at least 5 days
Time stable in supernatants ([10]; stored at room temperature): at least 1 day
